Values belong to the compound of their own block, whether it stands above or below them.
Tests used:
Rattus norvegicus [1] = assay: In vivo receptor occupancy at GABAA receptor in po dosed rat assessed as plasma concentration causing 50% reduction in [3H]-flumazenil receptor labeling by scintillation counting method; format: functional
Homo sapiens [2] = assay: In vivo receptor occupancy at GABAA receptor in human assessed as plasma concentration causing reduction in [11C]-flumazenil receptor labeling at 9 ng/ml by PET method relative to control; format: functional
Rattus norvegicus [3] = assay: In vivo receptor occupancy at GABAA receptor in po dosed rat assessed as brain concentration causing 50% reduction in [3H]-flumazenil receptor labeling after 18 hrs by scintillation counting method; format: functional
Homo sapiens [4] = assay: In vivo receptor occupancy GABAA receptor in human assessed as whole brain concentration causing reduction in [11C]flumazenil receptor labeling at 10 mg after […] by PET method relative to control; format: functional
[5] = Half life in rat at 1 mg/kg, po; format: ADME, organism-based; details: in vivo
Rattus norvegicus [6] = assay: In vivo receptor occupancy at GABAA receptor in po dosed Sprague-Dawley rat assessed as spinal cord concentration causing 50% reduction in [3H]-flumazenil receptor labeling after 1 hr by scintillation counting method; format: functional
[7] = Intrinsic clearance in human liver microsomes; format: ADME, Microsome; details: read-out: CLH
[8] = molecular target: T1, Gamma-aminobutyric acid receptor subunit alpha-2 (Homo sapiens) (UniProt P47869); assay: Binding affinity to GABA-A alpha2 (unknown origin) assessed as increase in induced current relative to control
T1 sequence (whole entry): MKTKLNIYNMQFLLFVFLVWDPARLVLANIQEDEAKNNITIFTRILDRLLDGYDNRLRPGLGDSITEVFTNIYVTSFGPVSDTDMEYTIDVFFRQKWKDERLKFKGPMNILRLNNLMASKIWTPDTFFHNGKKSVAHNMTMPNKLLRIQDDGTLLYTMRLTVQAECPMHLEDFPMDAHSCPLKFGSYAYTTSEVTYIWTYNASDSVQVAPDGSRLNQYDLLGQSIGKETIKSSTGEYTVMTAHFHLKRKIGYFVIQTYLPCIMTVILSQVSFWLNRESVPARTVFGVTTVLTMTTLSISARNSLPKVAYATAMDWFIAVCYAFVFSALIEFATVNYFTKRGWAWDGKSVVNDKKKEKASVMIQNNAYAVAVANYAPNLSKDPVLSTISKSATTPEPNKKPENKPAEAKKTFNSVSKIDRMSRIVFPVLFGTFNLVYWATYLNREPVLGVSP

[9] = molecular target: T2, Gamma-aminobutyric acid receptor subunit alpha-3 (Homo sapiens) (UniProt P34903); assay: Binding affinity to GABA-A alpha3 (unknown origin) assessed as increase in induced current relative to control
T2 sequence (whole entry): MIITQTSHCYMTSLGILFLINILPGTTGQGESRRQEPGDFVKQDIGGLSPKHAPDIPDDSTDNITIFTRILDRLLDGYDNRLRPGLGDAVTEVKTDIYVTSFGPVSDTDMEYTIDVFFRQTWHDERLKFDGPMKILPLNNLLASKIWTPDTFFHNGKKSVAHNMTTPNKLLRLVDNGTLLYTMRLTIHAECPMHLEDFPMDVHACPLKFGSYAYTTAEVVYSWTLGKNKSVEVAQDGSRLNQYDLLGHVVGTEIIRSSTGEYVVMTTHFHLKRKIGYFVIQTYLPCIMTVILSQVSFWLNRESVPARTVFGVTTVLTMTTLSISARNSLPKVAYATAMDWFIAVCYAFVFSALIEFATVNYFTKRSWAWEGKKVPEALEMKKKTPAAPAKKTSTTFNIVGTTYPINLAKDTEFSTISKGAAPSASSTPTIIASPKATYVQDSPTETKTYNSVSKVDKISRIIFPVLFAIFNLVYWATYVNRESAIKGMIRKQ

[10] = molecular target: T3, Gamma-aminobutyric acid receptor subunit alpha-5 (Homo sapiens) (UniProt P31644); assay: Binding affinity to GABA-A alpha5 (unknown origin) assessed as increase in induced current relative to control
T3 sequence (whole entry): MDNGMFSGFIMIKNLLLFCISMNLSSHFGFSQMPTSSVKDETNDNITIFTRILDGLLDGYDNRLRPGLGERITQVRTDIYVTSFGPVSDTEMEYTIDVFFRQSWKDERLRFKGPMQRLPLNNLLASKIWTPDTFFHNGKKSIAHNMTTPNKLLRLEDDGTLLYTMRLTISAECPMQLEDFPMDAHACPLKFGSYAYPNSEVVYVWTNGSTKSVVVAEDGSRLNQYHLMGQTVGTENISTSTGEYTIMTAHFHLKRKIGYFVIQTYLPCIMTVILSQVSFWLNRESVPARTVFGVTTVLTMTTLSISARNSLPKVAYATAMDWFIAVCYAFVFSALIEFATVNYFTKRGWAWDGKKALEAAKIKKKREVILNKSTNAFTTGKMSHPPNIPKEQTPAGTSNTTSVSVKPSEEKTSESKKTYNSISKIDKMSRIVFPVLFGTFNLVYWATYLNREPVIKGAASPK

[11] = molecular target: T4, Gamma-aminobutyric acid receptor subunit alpha-1 (Homo sapiens) (UniProt P14867); assay: Positive allosteric modulation of GABAA alpha1 (unknown origin) relative to control
T4 sequence (whole entry): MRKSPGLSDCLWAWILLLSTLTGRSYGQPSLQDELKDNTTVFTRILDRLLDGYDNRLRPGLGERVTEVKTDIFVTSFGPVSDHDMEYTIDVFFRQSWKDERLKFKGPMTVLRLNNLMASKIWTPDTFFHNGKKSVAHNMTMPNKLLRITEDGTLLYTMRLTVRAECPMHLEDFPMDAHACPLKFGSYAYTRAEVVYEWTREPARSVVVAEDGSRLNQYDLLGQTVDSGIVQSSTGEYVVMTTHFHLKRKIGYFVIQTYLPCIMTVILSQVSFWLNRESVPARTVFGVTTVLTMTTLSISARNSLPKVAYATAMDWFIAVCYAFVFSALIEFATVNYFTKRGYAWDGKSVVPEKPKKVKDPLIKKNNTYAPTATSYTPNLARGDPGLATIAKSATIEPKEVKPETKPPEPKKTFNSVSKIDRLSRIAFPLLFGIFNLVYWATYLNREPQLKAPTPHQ

[12] = Displacement of [3H]-flumazenil from human GABAA alpha2beta3gamma2 expressed in HEK293 cell membranes measured after 2 hrs by liquid scintillation counting method
[13] = Half life in human at 0.04 to 100 mg, po; format: ADME; details: in vivo
Rattus norvegicus [14] = assay: In vivo receptor occupancy at GABAA receptor in po dosed Sprague-Dawley rat assessed as cerebellum concentration causing 50% reduction in [3H]-flumazenil receptor labeling after 1 hr by scintillation counting method; format: functional
Homo sapiens [15] = assay: In vivo receptor occupancy GABAA receptor in human assessed as whole brain concentration causing reduction in [11C]flumazenil receptor labeling at 65 mg after […] by PET method relative to control; format: functional
Rattus norvegicus [16] = assay: In vivo receptor occupancy at GABAA receptor in po dosed Sprague-Dawley rat assessed as forebrain concentration causing 50% reduction in [3H]-flumazenil receptor labeling after 1 hr by scintillation counting method; format: functional
[17] = molecular target: T4, Gamma-aminobutyric acid receptor subunit alpha-1 (Homo sapiens); assay: Binding affinity to GABA-A alpha1 (unknown origin) assessed as increase in induced current relative to control
[18] = molecular target: T1, Gamma-aminobutyric acid receptor subunit alpha-2 (Homo sapiens); assay: Positive allosteric modulation of GABAA alpha2 (unknown origin) relative to control
[19] = molecular target: T5, GABA-A receptor; alpha-1/beta-3/gamma-2 (Homo sapiens, UniProt P14867+P18507+P28472); assay: Displacement of [3H]-flumazenil from human GABAA alpha1beta3gamma2 expressed in Ltk cells; format: cell-based
T5 sequence (P14867 whole entry): T4 sequence (whole entry)
T5 sequence (P18507 whole entry): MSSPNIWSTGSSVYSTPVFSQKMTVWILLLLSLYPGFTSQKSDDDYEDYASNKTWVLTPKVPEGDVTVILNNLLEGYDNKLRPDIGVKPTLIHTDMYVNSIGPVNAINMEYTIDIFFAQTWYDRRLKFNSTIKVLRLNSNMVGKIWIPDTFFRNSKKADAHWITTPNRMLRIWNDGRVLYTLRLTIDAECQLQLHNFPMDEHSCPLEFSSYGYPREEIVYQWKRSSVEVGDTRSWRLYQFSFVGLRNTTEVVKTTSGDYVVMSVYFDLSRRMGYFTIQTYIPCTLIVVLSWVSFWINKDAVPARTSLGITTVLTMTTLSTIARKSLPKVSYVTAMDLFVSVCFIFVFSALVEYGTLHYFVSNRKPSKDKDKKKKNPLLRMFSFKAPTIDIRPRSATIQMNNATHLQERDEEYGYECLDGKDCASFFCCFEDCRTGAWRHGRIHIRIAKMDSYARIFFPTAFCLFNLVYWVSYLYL
T5 sequence (P28472 whole entry): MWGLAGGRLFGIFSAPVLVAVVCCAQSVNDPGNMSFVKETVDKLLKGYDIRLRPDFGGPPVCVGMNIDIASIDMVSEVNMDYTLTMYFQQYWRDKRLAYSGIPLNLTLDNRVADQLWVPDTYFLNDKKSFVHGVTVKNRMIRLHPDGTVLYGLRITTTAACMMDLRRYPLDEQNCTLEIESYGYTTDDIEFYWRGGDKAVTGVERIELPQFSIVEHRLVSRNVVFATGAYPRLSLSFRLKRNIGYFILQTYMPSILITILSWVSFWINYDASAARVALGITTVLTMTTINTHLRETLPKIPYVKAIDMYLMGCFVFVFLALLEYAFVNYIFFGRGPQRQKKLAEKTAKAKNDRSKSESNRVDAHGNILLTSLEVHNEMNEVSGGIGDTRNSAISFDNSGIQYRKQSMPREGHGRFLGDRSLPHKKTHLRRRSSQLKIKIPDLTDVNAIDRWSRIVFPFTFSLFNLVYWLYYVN

[20] = molecular target: T6, GABA-A receptor; alpha-3/beta-3/gamma-2 (Homo sapiens, UniProt P18507+P28472+P34903); assay: Displacement of [3H]-flumazenil from human GABAA alpha3beta3gamma2 expressed in Ltk cells; format: cell-based
T6 sequence (P18507 whole entry): T5 sequence (P18507 whole entry)
T6 sequence (P28472 whole entry): T5 sequence (P28472 whole entry)
T6 sequence (P34903 whole entry): T2 sequence (whole entry)

[21] = molecular target: T7, GABA-A receptor; alpha-5/beta-3/gamma-2 (Homo sapiens, UniProt P18507+P28472+P31644); assay: Displacement of [3H]-flumazenil from human GABAA alpha5beta3gamma2 expressed in Ltk cells; format: cell-based
T7 sequence (P18507 whole entry): T5 sequence (P18507 whole entry)
T7 sequence (P28472 whole entry): T5 sequence (P28472 whole entry)
T7 sequence (P31644 whole entry): T3 sequence (whole entry)

Structure (SMILES): CCn1ncnc1COc1nn2c(-c3ccccc3F)nnc2cc1C(C)(C)C [MK-0777]
Occ50 (Rattus norvegicus [1]): 25 ng/mL
Occ (Homo sapiens [2]): 50%
Occ50 (Rattus norvegicus [3]): 0.42 mg/kg

half-life [5]: 5.5 h
microsomal CLint [7]: < 20 µL/min/mg
fold change (FC) [8]: 0.35
fold change (FC) [9]: 0.49
fold change (FC) [10]: 0.7
Activity [11]: < 20%
half-life [13]: 6 to 8.9 h
fold change (FC) [17]: 0.11
Activity [18]: > 50%
Structure (SMILES): CCn1cnc2c(-c3ccc(F)c(-c4ccc(S(=O)(=O)CC)cc4OC)c3)cnnc21 [DARIGABAT]
Occ (Homo sapiens [4]): 69%
Occ50 (Rattus norvegicus [6]): 0.3 to 1 mg/kg
Ki [12]: 2.92 nM
Occ50 (Rattus norvegicus [14]): 0.3 to 1 mg/kg
Occ (Homo sapiens [15]): 89%
Occ50 (Rattus norvegicus [16]): 0.3 to 1 mg/kg

fold change (FC) [8]: 0.43
fold change (FC) [9]: 0.43
fold change (FC) [10]: 0.39
Ki [19]: 0.79 nM
Ki [20]: 0.67 nM
Ki [21]: 2.25 nM
fold change (FC) [17]: 0.02
Structure (SMILES): Cn1ncnc1COc1nn2c(-c3cc(F)ccc3F)nnc2cc1C(C)(C)C

— ChEMBL document CHEMBL4402545, “Subtype Selective γ-Aminobutyric Acid Type A Receptor (GABAAR) Modulators Acting at the Benzodiazepine Binding Site: An Update” (J Med Chem, 2020)
